From publication PMC4301037, “Identification and Structure–Function Analysis of Subfamily Selective G Protein-Coupled Receptor Kinase Inhibitors” (ACS Chemical Biology, 2014)
Like-named read-outs stand apart in the source and are kept apart here.

Legend:
[1] = molecular target: T1, bovine GRK5 (Bos taurus, UniProt P43249); assay: Primary DSF inhibitor screen, GRK5; assay type: binding; settings: for rank in the primary screen, GRK5: rank ordering of compounds in primary DSF screen
T1 construct: when using full-length kinases as the receptor[37] instead of isolated kinase domains; made in house
T1 sequence (P43249 whole entry, the tested form may be a part): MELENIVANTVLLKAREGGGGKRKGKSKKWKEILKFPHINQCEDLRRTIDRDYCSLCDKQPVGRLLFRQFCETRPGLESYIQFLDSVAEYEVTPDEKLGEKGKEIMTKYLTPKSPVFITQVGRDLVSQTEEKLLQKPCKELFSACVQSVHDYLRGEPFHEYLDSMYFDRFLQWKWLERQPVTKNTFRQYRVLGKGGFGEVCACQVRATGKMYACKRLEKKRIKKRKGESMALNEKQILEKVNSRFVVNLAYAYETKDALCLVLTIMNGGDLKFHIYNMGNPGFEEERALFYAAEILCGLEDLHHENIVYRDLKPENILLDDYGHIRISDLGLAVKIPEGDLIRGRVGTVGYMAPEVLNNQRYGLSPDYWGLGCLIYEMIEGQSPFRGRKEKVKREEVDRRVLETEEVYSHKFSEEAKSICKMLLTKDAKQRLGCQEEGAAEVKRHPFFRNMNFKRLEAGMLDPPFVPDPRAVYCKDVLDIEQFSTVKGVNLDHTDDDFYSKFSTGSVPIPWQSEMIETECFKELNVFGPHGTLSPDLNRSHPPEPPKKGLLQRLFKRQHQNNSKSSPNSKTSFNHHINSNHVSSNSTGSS

[2] = molecular target: T2, GRK2 (Homo sapiens, UniProt P25098, S670A); assay: DSF retest (confirmation), GRK2; assay type: binding; settings: for GRK2 Tm: 0.2 mg mL^–1 kinase; for GRK2 ΔTm: relative to intrinsic melting point of the kinase
T2 construct: made in house
T2 sequence (P25098 1-689 S670A): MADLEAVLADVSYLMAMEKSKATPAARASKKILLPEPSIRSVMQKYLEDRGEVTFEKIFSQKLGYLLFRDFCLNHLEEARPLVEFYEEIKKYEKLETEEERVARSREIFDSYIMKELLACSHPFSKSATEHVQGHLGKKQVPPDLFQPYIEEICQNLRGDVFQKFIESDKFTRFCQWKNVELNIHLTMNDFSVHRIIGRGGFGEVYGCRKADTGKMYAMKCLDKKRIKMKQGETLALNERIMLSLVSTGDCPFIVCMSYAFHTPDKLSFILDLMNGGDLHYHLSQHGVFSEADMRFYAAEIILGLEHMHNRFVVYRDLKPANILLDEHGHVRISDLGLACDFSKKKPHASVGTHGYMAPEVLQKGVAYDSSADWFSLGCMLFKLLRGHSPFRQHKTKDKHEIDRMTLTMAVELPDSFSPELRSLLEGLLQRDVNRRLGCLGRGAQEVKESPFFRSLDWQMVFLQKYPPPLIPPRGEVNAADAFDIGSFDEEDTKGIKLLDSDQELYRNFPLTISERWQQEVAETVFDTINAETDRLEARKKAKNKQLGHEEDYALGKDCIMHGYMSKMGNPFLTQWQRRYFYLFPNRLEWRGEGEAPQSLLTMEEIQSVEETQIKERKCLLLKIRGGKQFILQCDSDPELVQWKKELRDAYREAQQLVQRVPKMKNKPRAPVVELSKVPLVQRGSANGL

[3] = tested on: GRK1, 2, and 5 and PKA; assay: Ssel selectivity score calculated from inhibition of GRK1, 2, 5 and PKA; settings: selectivity score from inhibition of GRK1, 2, 5 and PKA; <0.5 selective
[4] = molecular target: T3, GRK1 (Bos taurus, UniProt P28327); assay: In vitro phosphorylation assay (tubulin, 5 μM ATP), GRK1; assay type: biochemical, bovine; settings: for IC50: read-out: GRK1 log IC50 (converted)
T3 construct: Bovine GRK1_1–535, bovine and human GRK2S670A; made in house
T3 sequence (P28327 1-535): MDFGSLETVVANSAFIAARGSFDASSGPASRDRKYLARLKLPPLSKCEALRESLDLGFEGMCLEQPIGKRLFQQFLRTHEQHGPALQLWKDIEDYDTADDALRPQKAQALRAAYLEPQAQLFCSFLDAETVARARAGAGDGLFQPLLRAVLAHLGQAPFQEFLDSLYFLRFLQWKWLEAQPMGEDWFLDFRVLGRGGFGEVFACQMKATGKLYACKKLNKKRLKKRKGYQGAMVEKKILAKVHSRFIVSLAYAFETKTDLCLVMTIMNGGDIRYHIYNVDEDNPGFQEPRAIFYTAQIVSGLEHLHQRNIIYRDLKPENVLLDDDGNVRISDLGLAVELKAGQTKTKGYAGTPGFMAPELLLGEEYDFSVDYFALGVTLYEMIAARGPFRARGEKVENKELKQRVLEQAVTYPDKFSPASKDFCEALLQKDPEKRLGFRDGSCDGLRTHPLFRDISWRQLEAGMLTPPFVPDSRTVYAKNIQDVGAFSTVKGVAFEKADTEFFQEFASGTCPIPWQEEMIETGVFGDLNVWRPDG

[5] = molecular target: T4, GRK5 (Bos taurus, UniProt P43249); assay: DSF retest (confirmation), GRK5; assay type: binding, bovine; settings: for GRK5 Tm: 0.2 mg mL^–1 kinase; for GRK5 ΔTm: relative to intrinsic melting point of the kinase
T4 construct: when using full-length kinases as the receptor[37] instead of isolated kinase domains; made in house
T4 sequence (P43249 whole entry, the tested form may be a part): as the sequence (P43249 whole entry, the tested form may be a part) above

[6] = molecular target: T5, protein kinase A (PKA) (Mus musculus, UniProt P05132); assay: DSF retest (confirmation), PKA; assay type: binding; settings: for PKA Tm: 0.2 mg mL^–1 kinase; for PKA ΔTm: relative to intrinsic melting point of the kinase
T5 construct: His tag (inferred from pET15b vector and Ni-NTA column) (N); host or cells: E. coli Rosetta(DE3)pLysS
Description: Fourteen compounds (Figure 1a–c), including all GRK2 hits except staurosporine, and the most stabilizing pyrrolopyrimidine-containing compounds were obtained from GSK and retested using DSF on GRKs representing each vertebrate subfamily (GRK1, 2, and 5) (Table 1). […] The ability of these compounds to shift the Tm of the related AGC family kinase member protein kinase A (PKA) was also assessed (Table 1). In no case was ΔTm greater for PKA than for one of the tested GRKs. […]. There was no correlation for GRK1 (Figure 2c).
DSF was conducted using a ThermoFluor plate reader (Johnson & Johnson) in a buffer containing 20 mM HEPES, pH 7.0, 5 mM MgCl2, 2 mM DTT, and 1 mM CHAPS with 0.2 mg mL^–1 final concentration of GRK or PKA and 100 μM 1-anilinonaphthalene-8-sulfonic acid.[14]

[7] = molecular target: T4, GRK5; assay: In vitro phosphorylation assay (tubulin, 5 μM ATP), GRK5; assay type: biochemical, bovine; settings: for IC50: read-out: GRK5 log IC50 (converted)
[8] = tested on: 224 kinases; set-up: method as in ChEMBL database; settings: ref ChEMBL database; cited from earlier work
[9] = molecular target: T6, GRK2 (Bos taurus, UniProt P21146, S670A); assay: In vitro phosphorylation assay (tubulin, 5 μM ATP), GRK2; assay type: biochemical, bovine; settings: for IC50: read-out: GRK2 log IC50 (converted)
T6 construct: made in house
T6 sequence (P21146 1-689 S670A): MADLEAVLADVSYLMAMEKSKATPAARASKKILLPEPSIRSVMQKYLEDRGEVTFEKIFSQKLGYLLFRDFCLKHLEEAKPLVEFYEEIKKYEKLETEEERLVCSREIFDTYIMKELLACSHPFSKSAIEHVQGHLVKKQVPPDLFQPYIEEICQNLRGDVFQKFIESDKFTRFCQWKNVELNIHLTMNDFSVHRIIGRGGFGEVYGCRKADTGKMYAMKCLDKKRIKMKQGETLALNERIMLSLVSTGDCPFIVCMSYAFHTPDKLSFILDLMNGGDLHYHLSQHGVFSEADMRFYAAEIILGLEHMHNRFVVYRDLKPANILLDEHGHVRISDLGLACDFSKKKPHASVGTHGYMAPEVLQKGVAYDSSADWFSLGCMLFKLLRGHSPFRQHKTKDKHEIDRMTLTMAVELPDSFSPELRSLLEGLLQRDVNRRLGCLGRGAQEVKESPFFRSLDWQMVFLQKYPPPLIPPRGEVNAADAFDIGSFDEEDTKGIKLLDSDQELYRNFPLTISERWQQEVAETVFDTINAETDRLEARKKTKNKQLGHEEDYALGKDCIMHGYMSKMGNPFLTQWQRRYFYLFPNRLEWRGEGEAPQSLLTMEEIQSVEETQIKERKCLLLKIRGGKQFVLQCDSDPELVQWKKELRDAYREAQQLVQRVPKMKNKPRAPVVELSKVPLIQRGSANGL

[10] = molecular target: T3, GRK1; assay: DSF retest (confirmation), GRK1; assay type: binding, bovine; settings: for GRK1 Tm: 0.2 mg mL^–1 kinase; for GRK1 ΔTm: relative to intrinsic melting point of the kinase
[11] = molecular target: T7, PKA (Mus musculus, UniProt P05132); assay: PKA inhibition assay (ADP-Glo, CREBtide, 100 μM ATP); assay type: biochemical; settings: for IC50: logarithm of IC50 (−3.3 corresponds to 0.5 mM, footnote c), 438 nM PKA, 100 μM ATP, CREBtide, read-out: PKA log IC50 (converted)
T7 construct: His tag (inferred from pET15b vector and Ni-NTA column) (N); host or cells: E. coli Rosetta(DE3)pLysS

[12] = molecular target: T8, human GRK2S670A (Homo sapiens, UniProt P25098, S670A); assay: Primary DSF (differential scanning fluorimetry) inhibitor screen, GRK2; assay type: binding; settings: 10 μM compound
T8 construct: when using full-length kinases as the receptor[37] instead of isolated kinase domains; made in house
T8 sequence (P25098 1-689 S670A): T2 sequence (P25098 1-689 S670A)

[13] = 10 μM compound, 2 μM kinase, relative to DMSO control, read-out: ΔTm, primary screen, GRK5

| Structure (SMILES) | ΔTm at 10 µM [1, 13] | rank in the primary screen, GRK5 ([1]; 10 μM compound) | GRK2 Tm [2] | GRK2 ΔTm [2] | Ssel [3] | IC50 [4] | GRK1 fold (increase in potency relative to paroxetine) [4] | GRK5 Tm [5] | GRK5 ΔTm [5] | PKA Tm [6] | PKA ΔTm [6] | IC50 [7] | GRK5 fold (increase in potency relative to paroxetine) [7] | inhibition pattern in kinase cross-screening, in words [8] | IC50 [9] | GRK1 Tm [10] | GRK1 ΔTm [10] | IC50 [11] | other results |
| --- | --- | --- | --- | --- | --- | --- | --- | --- | --- | --- | --- | --- | --- | --- | --- | --- | --- | --- | --- |
| CC(C)COC(=O)c1ccc2c(c1)/C(=C/Nc1ccc(S(N)(=O)=O)cc1)C(=O)N2 [GW416981X] | 6.71 °C | 15 | 40.4 °C | 2.8 °C | 0.330 | 1000 µM | 0 fold | 28.7 °C | 2.0 °C | 47.7 °C | 2.3 °C | 25.1 µM | 5.0 fold | strong inhibition of many of the 221 kinases evaluated | > 1000 µM | 24.8 °C | 4.9 °C | > 501 µM | – |
| CN(c1ccc(NC(=O)Nc2ccc(OC(F)(F)F)cc2)cc1)c1ccnc(Nc2cccc(S(N)(=O)=O)c2)n1 [GW806742X] | – | 16 | 36.4 °C | –1.1 °C | 1.386 | > 1000 µM | – | 27.1 °C | 0.4 °C | 45.6 °C | 0.2 °C | > 1000 µM | – | strong inhibition of many of the 221 kinases evaluated | > 1000 µM | 20.3 °C | 0.4 °C | > 501 µM | ΔTm, primary screen, GRK5 ([1]; 10 μM compound, 2 μM kinase, relative to DMSO control): 6.5 °C; ΔTm at 10 µM ([1]; read-out: ΔTm, primary screen, GRK5, 10 μM compound, 2 μM kinase, relative to DMSO control): 6.48 °C |
| CCn1c(-c2nonc2N)nc2c(C#CC(C)(C)O)nc(O[C@@H](CN)c3ccccc3)cc21 [GSK1007102B] | 3.43 °C | – | 49.3 °C | 11.8 °C | 0.917 | 63.1 µM | 6 fold | 28.7 °C | 2.0 °C | 52.2 °C | 6.8 °C | 3.16 µM | 40 fold | strong inhibition of many of the 221 kinases evaluated | 1 µM | 26.7 °C | 6.8 °C | 0.501 µM | ΔTm, primary screen, GRK2 ([12]; 2 μM kinase, relative to DMSO control): 5.4 °C; ΔTm at 10 µM ([12]; 2 μM kinase, relative to DMSO control, read-out: ΔTm, primary screen, GRK2): 5.41 °C; rank in the primary screen, GRK2 ([12]; rank ordering of compounds in primary DSF screen): 1; GRK2 fold (increase in potency relative to paroxetine) ([9]; relative to paroxetine): 1.3 fold; IC50 against PKA, in words [11]: nanomolar |
